Data: paper PMC9785280, “Synthesis, Antiproliferative Evaluation and QSAR Analysis of Novel Halogen- and Amidino-Substituted Benzothiazoles and Benzimidazoles” (International Journal of Molecular Sciences, 2022)
Like-named read-outs stand apart in the source and are kept apart here.

How the values were obtained:
[1] = test system: HL60 (promyelocytic leukemia) cells; assay: MTT antiproliferative assay, HL60; format: cell-based, human; details: Homo sapiens, HL-60; 72 h, MTT, mean ± SD of three independent experiments
Description: (§1) The growth inhibition activity was assessed according to the slightly modified procedure performed at the National Cancer Institute, Developmental Therapeutics Program.
(§2) Examined compounds were dissolved in DMSO (1 × 10^−2 M). The experiments were carried out on seven human tumor cell lines and two normal cell lines. The following cell lines were used: HeLa (human cervical adenocarcinoma; purchased from ATCC), CaCo-2 (human colorectal adenocarcinoma), HuT78 (T-cell lymphoma), THP-1 (acute monocytic leukemia), SW620 (colorectal adenocarcinoma, metastatic), MDA-MB-231 (human breast adenocarcinoma), HL60 (promyelocytic leukemia cell line), foreskin fibroblast cells (BJ) and MDCK1 (Madine–Darby canine kidney fibroblast like cells). MDCK1 cells were used between 24 and 26 passages.
(§3) Adherent cells were cultured in the Dulbecco’s modified Eagle medium—DMEM (Gibco, EU) supplemented with 10 % heat-inactivated fetal bovine serum (FBS, Gibco, EU), 2 mM glutamine, and 100 U/0.1 mg penicillin/streptomycin. Cells on suspension were cultured in RPMI 1640 (Gibco, EU) medium supplemented with 10 % FBS (Gibco, EU), 2 mM glutamine, 1 mM sodium pyruvate, 10 mM HEPES. Cells were grown in humidified atmosphere under the conditions of 37 °C/5% of CO2 gas in the CO2 incubator (IGO 150 CELLlife^TM, JOUAN, Thermo Fisher Scientific, Waltham, MA, USA). A erythrosin B (Sigma-Aldrich, St. Louis, MO, USA) dye exclusion method was used to assess cell viability before plating.
(§4) Adherent cells (HeLa, CaCo-2, MCF-7 and MDCK-1) were plated in 96-well flat bottom plates (Greiner, Frickenhausen, Austria) at a concentration of 2 × 10^4 cells/mL. Suspension cells (THP-1 and HuT78) were plated in 96-well microtiter plates (Sarstead, Newton, USA) at a concentration of 1 × 10^5 cells/mL. Twenty-four hours later, cells were treated with test agents in […] 10-fold dilutions ([…] to 10^−4 M) and incubated for further 72 h. Working dilutions were freshly prepared on the day of testing. The solvent was also tested for eventual inhibitory activity by adjusting its concentration to be the same as in working concentrations. After 72 h of incubation, the cell growth rate was evaluated by performing the MTT assay, which detects dehydrogenase activity in viable cells. For this purpose, upon completion of the incubation period, growth medium was discarded and 50 μL of MTT was added to each well at a concentration of 5 mg/mL. After four hours of incubation at 37 °C, water insoluble MTT-formazan crystals were dissolved in 150 μL of dimethyl-sulfoxide (DMSO) for adherent cells, and in 10 % SDS with 0.01 M/L HCl for cells grown in suspension. The absorbance (OD, optical density) was measured on a microplate reader (iMark, BIO RAD, Hercules, CA, USA) at 595 nm.
(§5) Percent of life cells was calculated as follows: % = OD (sample)–OD (background)/OD (control)–OD (background) × 100.
(§6) Optical density (OD) of background for adherent cells is the OD of MTT solution and DMSO; OD (background) for suspension cells is OD of the culture medium with MTT and 10% SDS with 0.01 M/L HCl; OD (control) is the OD of the cells growth without tested compounds.
(§7) Calculation of GI50 value curves and QC analysis is performed by using the Excel tools and GraphPadPrism software (La Jolla, CA), v. 5.03. Briefly, individual concentration effect curves are generated by plotting the logarithm of the concentration of tested compounds(X) vs. corresponding percent inhibition values (Y) using least squares fit. The best fit GI50 values are calculated using Log (inhibitor) versus normalized response—Variable slope equation, where Y Ľ 100/(1 ţ 10 ((LogIC50 _ X) * HillSlope)). QC criteria parameters (Z0, S:B, R2, HillSlope) were checked for every GI50 curve.

[2] = test system: HeLa (cervical adenocarcinoma) cells; assay: MTT antiproliferative assay, HeLa; format: cell-based; details: Homo sapiens, 72 h, mean ± SD of three independent experiments
Method in brief: (§8)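 Cells were exposed 24 h after plating to five 10-fold dilutions (10^−7 to 10^−4 M, from 1 × 10^−2 M DMSO stock) for 72 h at 37 °C. MTT was read at 595 nm and percent viable cells computed against untreated control. GI50 came from variable-slope log(inhibitor) vs normalized response fits.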

[3] = test system: THP1 (human monocytic leukemia) cells; assay: MTT antiproliferative assay, THP1; format: cell-based; details: Homo sapiens, THP-1; 72 h, MTT, mean ± SD of three independent experiments
Description: as §1, §2, §3, §4, §5, §6, §7

[4] = test system: CaCo-2 (colon adenocarcinoma) cells; assay: MTT antiproliferative assay, CaCo-2; format: cell-based, human; details: Homo sapiens, Caco-2; 72 h, MTT, mean ± SD of three independent experiments
Method in brief: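 CaCo-2 cells, plated at 2 × 10^4 cells/mL in DMEM with 10 % FBS at 37 °C/5% CO2, were treated 24 h later with five 10-fold dilutions (10^−7 to 10^−4 M) for 72 h. Viability was measured by MTT (4 h, formazan dissolved in DMSO, OD 595 nm) against background and untreated controls. GI50 came from log-concentration versus percent-inhibition fits.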

[5] = test system: SW620 (colorectal adenocarcinoma, metastatic) cells; assay: MTT antiproliferative assay, SW620; format: cell-based, human; details: Homo sapiens, SW-620
Description: as §1, §2, §3, §4, §5, §6, §7

[6] = test system: HuT78 (T-cell lymphoma) cells; assay: MTT antiproliferative assay, HuT78; format: cell-based, human; details: for IC50: Homo sapiens, HuT78, 72 h, 72 h, MTT, mean ± SD of three independent experiments; for SI (MDCK) HuT78: SI = IC50 MDCK1 / IC50 HuT78; for SI (BJ) HuT78: SI = IC50 BJ / IC50 HuT78
Method in brief: as §8

[7] = test system: MDA-MB-231 (human breast adenocarcinoma) cells; assay: MTT antiproliferative assay, MDA-MB-231; format: cell-based; details: Homo sapiens, MDA-MB-231; 72 h, MTT, mean ± SD of three independent experiments
Description: as §1, §2, §3, §4, §5, §6, §7

[8] = test system: MDCK1 (Madin–Darby canine kidney) cells; assay: MTT antiproliferative assay, non-tumor MDCK1 cells; format: cell-based; details: Canis lupus familiaris, MDCK1, 72 h, mean ± SD of three independent experiments, normal cells
Method in brief: as §8

human fibroblasts (BJ) = assay: MTT antiproliferative assay, normal BJ fibroblasts; format: cell-based; details: Homo sapiens, Fibroblast, 72 h, MTT, mean ± SD of three independent experiments; normal cells
Method in brief: as §8

[9] = 72 h, MTT, mean ± SD of three independent experiments, read-out: IC50 (µM) SW620

| Compound | IC50 [1] [µM] | IC50 [2] [µM] | IC50 [3] [µM] | IC50 [4] [µM] | IC50 [5, 9] [µM] | IC50 ([5]; span over SW620, MDA-MB-231, HL60, THP1, read-out: IC50 values on additional set of tumor cells) [µM] | IC50 [6] [µM] | SI (MDCK) HuT78 [6] | melting point [°C] | IC50 [7] [µM] | IC50 [8] [µM] | IC50 (human fibroblasts (BJ)) [µM] | SI (BJ) HuT78 [6] |
| --- | --- | --- | --- | --- | --- | --- | --- | --- | --- | --- | --- | --- | --- |
| Cl.c1cc(-c2nc3ccc(C4=NCCN4)cc3s2)ccc1OCc1c[nH]nn1 [36a, 2-(4-((1H-1,2,3-triazol-4-yl)methoxy)phenyl)-6-(4,5-dihydro-1H-imidazol-2-yl)benzothiazole hydrochloride] | 18.8 ± 1.1 | 62.6 ± 22 | 20.4 ± 3.3 | 24.8 ± 9.2 | 5.6 ± 1.2 | 5.6 to 33 | 4.4 ± 3.9 | 7.23 | 218 to 221 | 33 ± 4.9 | – | – | – |
| COc1cc(-c2nc3ccc(C4=NCCN4)cc3s2)ccc1OCc1c[nH]nn1.Cl [36c, 2-(3-Methoxy-4-((1H-1,2,3-triazol-4-yl)methoxy)phenyl)-6-(4,5-dihydro-1H-imidazol-2-yl)benzothiazole hydrochloride] | > 100 | > 100 | > 100 | > 100 | > 100 | – | 1.6 ± 0.8 | 62.5 | – | > 100 | > 100 | > 100 | – |
| Cl.c1ccc(Cn2cc(COc3ccc(-c4nc5ccc(C6=NCCN6)cc5s4)cc3)nn2)cc1 [37a, 2-(4-((1-Benzyl-1H-1,2,3-triazol-4-yl)methoxy)phenyl)-6-(4,5-dihydro-1H-imidazol-2-yl)benzothiazole hydrochloride] | – | 3.6 ± 0.1 | – | 3.7 ± 1.5 | – | – | 1.6 ± 0.8 | – | 153 to 156 | – | 1.5 ± 0.3 | 4.3 ± 3.6 | – |
| Cl.Fc1cc(-c2nc3ccc(C4=NCCN4)cc3s2)ccc1OCc1cn(Cc2ccccc2)nn1 [37b, 2-(3-Fluoro-4-((1-benzyl-1H-1,2,3-triazol-4-yl)methoxy)phenyl)-6-(4,5-dihydro-1H-imidazol-2-yl)benzothiazole hydrochloride] | – | 4 ± 0.4 | – | 6.1 ± 2.7 | – | – | 2.1 ± 0.2 | – | > 240 | – | 2.4 ± 0.3 | 5.3 ± 2.9 | 2.52 |
| COc1cc(-c2nc3ccc(C4=NCCN4)cc3s2)ccc1OCc1cn(Cc2ccccc2)nn1.Cl [37c, 2-(3-Methoxy-4-((1-benzyl-1H-1,2,3-triazol-4-yl)methoxy)phenyl)-6-(4,5-dihydro-1H-imidazol-2-yl)benzothiazole hydrochloride] | – | 3.4 ± 0.2 | – | 4.5 ± 2.7 | – | – | 3 ± 1 | – | > 240 | – | 2.6 ± 0.1 | 4.8 ± 3.5 | 1.6 |
